# Reference: US9801953B2, “Nanoparticles carrying nucleic acid cassettes for expressing RNA” (EMORY UNIVERSITY, priority 2012, dated 2017)
# Assays:
# MIA PaCa-2 cells = assay: Crystal violet cell proliferation assay; assay type: cell-based; conditions: Homo sapiens
# Excerpt: Survivin is an anti-cell death gene that confers resistance of cancer cells to therapeutic agents. […] However, SV40-NLS-QD-siRNA nanocassettes could not be used for in vivo delivery due to the lack of specificity. Inhibition of survivin expression led to the activation of the apoptotic cell death since a high level of active caspase 3 (17 KDa fragments) was detected in those cell groups by Western blot analysis (FIG. 6B). Targeted internalization of hATF QD-survivin siRNA expressing nanocassettes were further confirmed in the MIA PaCa-2 cell line (FIG. 6C).
# The effect of survivin gene silencing using hATF-QD-Survivin siRNA expressing nanocassettes was examined on cell sensitivity to chemotherapy drugs. […] Pancreatic cancer cells have a low sensitivity to free gemcitabine treatment and 60% of viable cells were detected by cell proliferation assay 72 h following 100 μM of gemcitabine treatment (FIG. 7A).
# Crystal violet assay was used to determine the percentage of viable cells. […] Percentage of viable cells in the experimental groups was determined by measurements O.D. at 590 nm using Spectra Max Plus (Molecular Devices, Sunnyvale, Calif.). […] Cell lysates were analyzed for their levels of caspase 3-like activity, which is generated by caspases 3, 7, and 10, using an Ac-DEVD-AFC substrate (Calbiochem, San Diego, Calif.). […]
# [1] = tested on: MCF-10DCIS human breast cancer cells; assay: Target specificity / intracellular delivery of nanoparticles, fluorescence microscopy; assay type: cell-based; conditions: 15 pmol of QDs, 24 h
# Procedure: (§1) To further quantify gene silencing efficiency in tumor cells in vitro and the detection of dynamic changes in the inhibition of gene expression in animal tumor models in vivo using bioluminescence imaging, U6-luciferase (Luc) siRNA expressing nanocassettes from p-Silencer-firefly luciferase shRNA plasmid were amplified. […] The inhibitory effect was enhanced as the copy number of Luc siRNA nanocassettes on each QD increased from 2 to 10 or 20 (FIG. 4B).
# Cells were plated in 24-well culture plates for 24 h and then incubated with various nanoparticles at an equal molar concentration (15 pmol of QDs) for 24 h. Control unconjugated DNA cassettes or plasmids were transfected into cells. As a delivery efficiency control, siRNA expressing nanocassettes were also conjugated to QDs with the NLS peptides from SV40 virus, CGGGPKKKRKVE (SEQ ID NO: 10). The peptide sequence was provided by Dr. Steven Dowdy at University of California, San Diego. The SV-40-NLS peptides were synthesized by Genscript USA Inc. (Piscataway, N.J.). Culture plates were then examined using an inverted Olympus fluorescence microscope.
# [2] = tested on: firefly luciferase gene stably transfected human breast cancer MCF-10DCIS cell; assay: Luciferase activity assay in cell lysates; assay type: cell-based; conditions: MCF-10DCIS cell lysates, 24 h after nanoparticle incubation
# Excerpt: as §1
# Following different treatments, cells were collected from culture plates. Cell lysates were examined for luciferase activity using the Single Luciferase Assay System (Promega Corp., Madison, Wis.). The level of the luciferase activity was measured by a luminometer (Lumistar galaxy, BMG, Winooski, VM) for single samples or using the Xenogen IVIS system (Caliper Life Sciences, Mountain View, Calif.) for 96-well plates.
# [3] = tested on: luciferase positive MCF-10DCIS tumors; assay: Bioluminescence imaging of gene silencing in orthotopic breast cancer xenografts; assay type: in vivo, nude mice
# Procedure: One of the major obstacles in applying siRNA technology to cancer therapy is the low delivery and gene silencing efficiencies in the tumor following systemic administration. To determine the gene silencing efficiency of uPAR-targeted siRNA expressing nanocassettes, hATF-QD-Luc siRNA nanocassettes were injected via the tail vein into nude mice bearing orthotopic luciferase positive MCF-10DCIS tumors. Non-invasive bioluminescence imaging was used at different time points to determine changes in the luciferase activity in the tumors. Twenty-four hours after the injection, the level of luciferase activity decreased by 42% in the mice that received hATF-QD-Luc siRNA nanocassettes.
# To determine whether the changes in luciferase activity in the tumor were the result of specific silencing of the luciferase gene, mice bearing MCF-10DCIS tumors in the low abdominal mammary gland received a tail vein injection of either hATF-QD-Luc siRNA or hATF-QD-control siRNA nanocassettes. […] Therefore, the effect of down regulation of luciferase gene expression is likely due to the targeted delivery of luciferase siRNA-expressing nanocassettes into the tumor.
# [4] = mouse, in vivo
# Procedure: The tumor bearing mice then received 200 pmol of QDs carrying luciferase siRNA-expressing DNA cassettes (about 2 nmol of DNA cassettes) by tail vein injection. Before and at different time points following the nanoparticle administration, 2 mg/Kg of luciferin substrate was injected intraperitoneally into the mice for 5 min before each bioluminescence imaging procedure using identical imaging conditions and an Olympus OV-100 small animal imaging system (Olympus America Inc.).
Compound,"viability at 1 µM (MIA PaCa-2 cells; 1 μM gemcitabine, free drug treated group, read-out: percentage of viable cells) [%]","viability at 100 µM (MIA PaCa-2 cells; 100 μM gemcitabine, 72 h, read-out: viable cells) [%]",entry into cells (intracellular delivery efficiency) [1],luciferase activity [2],"decrease in level of luciferase activity in tumor ([3]; 24 h after tail vein injection, 200 pmol QDs) [%]",inhibitory effect on luciferase activity in tumor ([3]; 72 h after injection),"decrease in luciferase activity in the tumor ([3]; 72 h after injection, specificity experiment (FIG. 5C)) [%]",luciferase activity in tumor versus pre-injection ([3]; 140 h after injection),inhibitory effect on luciferase activity in the tumor ([3]; 144 h after injection (FIG. 5C)),duration of inhibitory effect on luciferase activity ([3]; after tail vein injection),levels of QD accumulation in the liver and spleen [4]
Nc1ccn([C@@H]2O[C@H](CO)[C@@H](O)C2(F)F)c(=O)n1 [gemcitabine],94,60,–,–,–,–,–,–,–,–,–
hATF-QD-Luc siRNA nanocassettes: U6-luciferase siRNA expressing DNA nanocassettes conjugated to QDs with human ATF targeting ligands,–,–,could efficiently enter,decrease in luciferase activity,42,further enhanced,> 90,returned to the pre-injection level,still strong,over 120 h,markedly decreased
